The target in one test is T1, C5aR1-WT (Homo sapiens, UniProt P21730).
T1 construct: expressed in transfected cells; host or cells: HEK293
T1 sequence (P21730 1-350): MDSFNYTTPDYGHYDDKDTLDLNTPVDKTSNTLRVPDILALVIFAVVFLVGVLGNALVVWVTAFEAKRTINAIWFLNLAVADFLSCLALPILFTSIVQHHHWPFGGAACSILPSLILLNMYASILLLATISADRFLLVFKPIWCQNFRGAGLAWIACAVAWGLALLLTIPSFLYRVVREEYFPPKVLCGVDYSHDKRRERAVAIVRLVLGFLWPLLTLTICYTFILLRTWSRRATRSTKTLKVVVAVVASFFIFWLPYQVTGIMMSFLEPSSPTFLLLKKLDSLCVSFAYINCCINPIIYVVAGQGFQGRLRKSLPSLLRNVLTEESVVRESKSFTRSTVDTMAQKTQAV
Put plainly: BRET assay measuring β-arrestin 2 recruitment. It counts as cell-based. The note with it: C5aR1 wild type, HEK293, BRET, mean±SEM, n=3, Table S5, read-out: EC50, β-arrestin2 recruitment. The protocol: Briefly, HEK293 cells were transiently transfected with C5aR1-Nluc and mVenus-β-arrestin 2 or C5aR2-mVenus and Nluc-β-arrestin 2 constructs using PEI transfection reagent (YEASEN, 40816ES02) according to the manufacturer’s instruction. At 24 h post transfection, the cells were gently detached and seeded (100,000/well) onto 96-well white plates in DMEM containing 5% FBS. On the next day, cells were washed once with Phosphate Buffered Saline (PBS) and incubated in HBSS containing 20 mM HEPES, pH 7.4, with coelenterazine h (5 μM, YEASEN, 40906ES02) for 1 h (37 °C, 5% CO2). […] We carried out the nonlinear regression (curve fit) dose-response function in GraphPad Prism 7 to yield the values of Emax and EC50.
(In general: In BRET a luciferase serves as donor, and the signal depends on an acceptor being close.)

A further test addresses T2, C5aR1 wild type (Homo sapiens, UniProt P21730).
T2 construct: expressed in transfected cells; host or cells: HEK293
T2 sequence (P21730 1-350): T1 sequence (P21730 1-350)
Put plainly: BRET-based Gαi1–γ2 dissociation assay (G protein signaling). It counts as cell-based. The note with it: HEK293, Gi protein dissociation assay (Fig. S10a), ligand 10 min, mean±SEM, n=3. The protocol: The activation of C5aR1 induced by ligands was measured through BRET-based Gαi1 dissociation from Gβ1γ2 as previously described.[60] HEK293 cells were plated in 6-well plates containing 600,000–800,000 cells per well and cultured 24 h at 37 °C in cell incubator. […] After transfection for 24 h, cells were harvested and dispensed into 96-well white plates and allowed to culture overnight. […] Next, prepared ligands were added into cells for 10 min and the second BRET signal was measured. […] Data were analyzed using a simulation dose-response in GraphPad Prism 7.

Test [1] concerns C5aR1. The test is described as follows: Bias calculation, Gi protein signaling vs β-arrestin 2 recruitment. The class given is cell-based, human. To be noted: from curve fit parameters, endogenous agonist C5a as reference; β value > 0 Gi protein-biased, < 0 β-arrestin-biased. The protocol: The measurement of cAMP inhibition and β-arrestin recruitment in our study was performed as described. Besides, the parameters used below were based on the curve fits of the combined datasets described above.

The subject of test [2] is C5aR1. The test is described as follows: Biased antagonism in competition with C5a (Gi-protein signaling vs β-arrestin 2 recruitment). To be noted: HEK293. It counts as cell-based, human. The protocol: To measure cAMP inhibition effects on the forskolin-induced cAMP accumulation of C5aR1, the GloSensor cAMP assay (Promega) was performed as described in the previous study.[59] Briefly, Flag-tagged wild-type human C5aR1 was co-expressed with GloSensor plasmid in HEK293 cells in 6-well culture plates. After at least 24 h, transfected cells were harvested and suspended in assay buffer Hank’s Balanced Salt Solution (HBSS) containing 10 mM HEPES, pH 7.4, with an additional 3% v/v dilution of the D-Luciferin-Potassium Salt (YEASEN, 40902ES01). […] Finally, the luminescence signals were counted on the Synergy H1 microplate reader (BioTek). […]
The C5a-mediated β-arrestin 2 recruitment to C5aR1 and C5aR2, respectively, was measured using BRET-based assay as previously described.[36],[61],[62] […] The baseline BRET light emissions (460–485 nm and 520–545 nm) were monitored by the Synergy H1 microplate reader (BioTek). After the incubation of different diluted concentrations of agonist with or without antagonist for 10 min, the second BRET light emissions were measured and the ligand-induced BRET ratio was calculated by subtracting the acceptor (mVenus, 520–545 nm) over donor (Nluc, 460–485 nm) emission ratio of the vehicle-treated wells from that of the ligand-treated wells. […]

Square brackets hold non-standard residues; d marks the D form. Peptide text beside a SMILES is read from it. Nva = CCC[C@H](N)C(=O)O

As usually defined, the EC50 is the concentration giving half of the maximal effect.

For `CC(=O)N[C@@H](Cc1ccccc1)C(=O)N[C@@H](CCCCN)C(=O)N1CCC[C@H]1C(=O)N[C@@H](CC(C)C)C(=O)N[C@@H](C)C(=O)N[C@@H](Cc1ccccc1)C(=O)N[C@H](C)C(=O)N[C@@H](CCCNC(=N)N)C(=O)O` [BM213P6-F] (Ac-FKPLAF[dA]R-OH), the EC50 at C5aR1-WT was 155 ± 59 µM; on C5aR1 wild type, 0.455 ± 0.0349 µM.
Regarding `CC(=O)N[C@@H](Cc1ccccc1)C(=O)N[C@@H](CCCCN)C(=O)N1CCC[C@H]1C(=O)N[C@@H](CC(C)C)C(=O)N[C@@H](C)C(=O)N[C@@H](CC(C)C)C(=O)N[C@H](C)C(=O)N[C@@H](CCCNC(=N)N)C(=O)O` [BM213P6-L] (Ac-FKPLAL[dA]R-OH; C-terminus assumed), in the test on C5aR1 [1], the “Signaling bias (bias factor, in words)” value was “increased β-arrestin-biased features compared to BM213”.
For the compound `CCC[C@H](NC(=O)[C@H](C)NC(=O)[C@H](CC(C)C)NC(=O)[C@@H]1CCCN1C(=O)[C@H](CCCCN)NC(=O)[C@H](Cc1ccccc1)NC(C)=O)C(=O)N[C@H](C)C(=O)N[C@@H](CCCNC(=N)N)C(=O)O` [BM213P6-Nva] (Ac-FKPLA[Nva][dA]R-OH), the “Signaling bias (bias factor, in words)” value in the test on C5aR1 [1] is “increased β-arrestin-biased features compared to BM213”.
Regarding `CC(=O)N[C@@H](Cc1ccccc1)C(=O)N[C@@H](CCCCN)C(=O)N1CCC[C@H]1C(=O)N[C@@H](CC(C)C)C(=O)N[C@@H](C)C(=O)N[C@H](C(=O)N[C@H](C)C(=O)N[C@@H](CCCNC(=N)N)C(=O)O)C(C)C` [BM213P6-V] (Ac-FKPLAV[dA]R-OH), the 50% effective concentration (EC50) at C5aR1-WT worked out at 2.59 ± 0.11 µM; on C5aR1 wild type, 0.0355 ± 0.00423 µM.
For the compound `Cc1ccc(NC(=O)[C@H]2CCCN(C(=O)c3c(C)cccc3F)[C@H]2c2ccc(NC3CCCC3)cc2)cc1C(F)(F)F` [avacopan], the “Biased antagonism (in words)” value with C5aR1 [2] is given as “biased inhibition toward β-arrestin recruitment over G protein coupling”.
Regarding PMX53, the “Biased antagonism (in words)” value in the test with C5aR1 [2] was “the opposite”.

The record behind these values is publication PMC9937529, “Mechanism of activation and biased signaling in complement receptor C5aR1” (Cell Research, 2023).
